Assay [1] deals with T1, EGF receptor tyrosine kinase (Homo sapiens, UniProt P00533).
T1 construct: Receptor tyrosine kinase was obtained in partially purified form from A431 cells; endogenous in cells; host or cells: A431 cells (human vulval carcinoma), Triton X-100 solubilised membrane fraction
Put plainly: In vitro assay: ability of a test compound to inhibit the enzyme EGF receptor tyrosine kinase (Test (a)). Format: biochemical. As to conditions: EGF receptor tyrosine kinase from A431 cells; approximate values. The protocol:
(a) An in vitro assay which determines the ability of a test compound to inhibit the enzyme EGF receptor tyrosine kinase.
A-431 cells were grown to confluence using Dulbecco's modified Eagle's medium (DMEM) containing 5% fetal calf serum (FCS). […] The homogenate was centrifuged at 400 g for 10 minutes at 0-4° C. The supernatant was centrifuged at 25,000 g for 30 minutes at 0-4° C. The pelleted material was suspended in 30 mM Hepes buffer at pH 7.4 containing 5% glycerol, 4 mM benzamidine and 1% Triton X-100, stirred for 1 hour at 0-4° C., and recentrifuged at 100,000 g for 1 hour at 0-4° C. The supernatant, containing solubilised receptor tyrosine kinase, was stored in liquid nitrogen.
There was thus obtained the test enzyme solution.
Equal volumes of this solution and a solution of epidermal growth factor (EGF; 20 μg/ml) were mixed.
[γ-^32 P]ATP (3000 Ci/mM, 250 μCi) was diluted to a volume of 2 ml by the addition of a solution of ATP (100 μM) in distilled water. An equal volume of a 4 mg/ml solution of the peptide […]in a mixture of 40 mM Hepes buffer at pH 7.4, 0.1% Triton X-100 and 10% glycerol was added.
The test compound/EGF mixture solution (5 μl) was added to the test enzyme solution (10 μl) and the mixture was incubated at 0-4° C. for 30 minutes. The ATP/peptide mixture (10 μl) was added and the mixture was incubated at 25° C. for 10 minutes. The phosphorylation reaction was terminated by the addition of 5% trichloroacetic acid (40 μl) and bovine serum albumin (BSA; 1 mg/ml, 5 μl). The mixture was allowed to stand at 4° C. for 30 minutes and then centrifuged. An aliquot (40 μl) of the supernatant was placed onto a strip of Whatman p 81 phosphocellulose paper. The strip was washed in 75 mM phosphoric acid (4×10 ml) and blotted dry. Radioactivity present in the filter paper was measured using a liquid scintillation counter (Sequence A). The reaction sequence was repeated in the absence of the EGF (Sequence B) and again in the absence of the test compound (Sequence C).
Receptor tyrosine kinase inhibition was calculated as follows: [formula]

The next assay deals with KB cells. Nature of the assay: In vitro assay: inhibition of the EGF-stimulated growth of the human naso-pharyngeal cancer cell line KB (Test (b)). In kind it is cell-based. The following applies: 72 h, EGF 10 ng/ml, 3 days, MTT, approximate values. The procedure:
(b) An in vitro assay which determines the ability of a test compound to inhibit the EGF-stimulated growth of the human naso-pharyngeal cancer cell line KB.
KB cells were seeded into wells at a density of 1×10^4 -1.5×10^4 cells per well and grown for 24 hours in DMEM supplemented with 5% FCS (charcoal-stripped). Cell growth was determined after incubation for 3 days by the extent of metabolism of MTT tetrazolium dye to furnish a bluish colour. Cell growth was then determined in the presence of EGF (10 ng/ml) or in the presence of EGF (10 ng/ml) and a test compound at a range of concentrations. An IC50 value could then be calculated.

T1 sequence (P00533 25-1210): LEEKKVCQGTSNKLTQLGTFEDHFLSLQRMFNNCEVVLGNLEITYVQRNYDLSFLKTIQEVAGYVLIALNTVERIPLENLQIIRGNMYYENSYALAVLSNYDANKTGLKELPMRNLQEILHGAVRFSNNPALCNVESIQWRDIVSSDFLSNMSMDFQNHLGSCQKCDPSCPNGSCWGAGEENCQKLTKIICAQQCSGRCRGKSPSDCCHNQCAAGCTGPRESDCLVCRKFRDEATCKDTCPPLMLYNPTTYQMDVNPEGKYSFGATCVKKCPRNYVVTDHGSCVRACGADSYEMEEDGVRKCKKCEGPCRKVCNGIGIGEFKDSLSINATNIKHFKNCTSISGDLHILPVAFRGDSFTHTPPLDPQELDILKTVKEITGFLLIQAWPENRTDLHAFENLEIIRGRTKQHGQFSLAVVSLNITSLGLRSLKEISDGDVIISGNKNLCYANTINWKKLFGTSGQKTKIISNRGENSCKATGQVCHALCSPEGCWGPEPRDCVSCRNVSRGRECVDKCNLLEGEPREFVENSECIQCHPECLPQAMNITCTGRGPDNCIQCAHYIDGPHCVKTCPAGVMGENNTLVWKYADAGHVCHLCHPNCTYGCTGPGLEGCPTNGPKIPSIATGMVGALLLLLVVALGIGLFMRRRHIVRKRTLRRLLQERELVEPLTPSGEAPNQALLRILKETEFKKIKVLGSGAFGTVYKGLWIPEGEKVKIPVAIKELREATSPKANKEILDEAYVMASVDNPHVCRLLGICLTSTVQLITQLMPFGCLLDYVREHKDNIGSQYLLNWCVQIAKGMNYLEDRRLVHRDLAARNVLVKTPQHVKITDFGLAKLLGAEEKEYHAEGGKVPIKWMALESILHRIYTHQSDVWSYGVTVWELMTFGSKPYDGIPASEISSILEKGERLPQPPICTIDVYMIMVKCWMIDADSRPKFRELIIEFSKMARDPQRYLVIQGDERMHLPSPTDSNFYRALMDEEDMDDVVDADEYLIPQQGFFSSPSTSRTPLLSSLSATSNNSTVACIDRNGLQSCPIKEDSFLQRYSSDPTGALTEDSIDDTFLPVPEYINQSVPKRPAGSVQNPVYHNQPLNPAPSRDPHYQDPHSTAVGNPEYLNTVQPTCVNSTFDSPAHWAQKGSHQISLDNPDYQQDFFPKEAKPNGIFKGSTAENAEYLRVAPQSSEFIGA

As usually defined, the IC50 is the midpoint of a concentration-inhibition curve. Turning to `COCCCNc1ccc2ncnc(Nc3ccc(F)c(Cl)c3)c2c1` [Example 1, 4-(3'-chloro-4'-fluoroanilino)-6-(3-methoxypropylamino)quinazoline], the IC50 is 50 nM in assay [1] and 100 nM with KB cells.
As to `COCCNc1ccc2ncnc(Nc3ccc(F)c(F)c3)c2c1` [Example 2, 4-(3',4'-difluoroanilino)-6-(2-methoxyethylamino)quinazoline], the IC50 in assay [1] amounted to 300 nM; with KB cells it was 500 nM.
For the compound `COCCNc1ccc2ncnc(Nc3ccc(F)c(Cl)c3)c2c1` [Example 3, 4-(3'-chloro-4'-fluoroanilino)-6-(2-methoxyethylamino)quinazoline], the 50% inhibitory concentration (IC50) in assay [1] was found to be 40 nM; with KB cells, 300 nM.
For the compound `COCCNc1ccc2ncnc(Nc3ccc(F)cc3F)c2c1` [Example 4, 4-(2',4'-difluoroanilino)-6-(2-methoxyethylamino)quinazoline], the IC50 was 300 nM in assay [1] and 1100 nM in the assay with KB cells.

These data come from patent US5942514A, “Quinazoline derivatives” (Zeneca Limited, priority 1995, dated 1999).
